This passage reports IC50 results from paper PMC8402917 (Viruses, 2021).

The IC50 is the midpoint of a concentration-inhibition curve.

In the test the target is T1, SARS-CoV-2 3CLpro (3CL protease, main protease) (Severe acute respiratory syndrome coronavirus 2, UniProt P0DTD1).
T1 construct: gene rep
The test can be described thus: biochemical.

Molecules are shown by their SMILES.

As to `CC1=C(/C=C/C(C)=C/C=C/C(C)=C/C(=O)O)C(C)(C)CCC1` [all-trans retinoic acid], the IC50 amounted to 24.7 ± 1.65 µM.
